{
  "source": "patent US10065951B2",
  "about": "“Small molecule transcription modulators of bromodomains” (Icahn School of Medicine at Mount Sinai, priority 2014, dated 2018)",
  "key": {"[1]": {"test_system": "oligodendrocyte progenitor cultures", "assay": "Microarray and qRT-PCR gene expression in oligodendrocyte progenitor cultures", "format": "cell-based, rat", "method": "Raw values were normalized to Gapdh levels and expressed relative to the levels detected in cells kept for 1 day in ODM. A housekeeping gene (act) was used as a control.\nTotal RNA were isolated from the cells using Trizol® Reagent following manufacturer's instruction and cleaned up using RNeasy Mini kit (Qiagen, Hilden, Germany). 0.5-1 μg of total RNA was used in 20 μl of reverse transcription (RT) reaction, using SuperScript RT-PCR kit (Invitrogen, Carlsbad, Calif.). Quantitative RT-PCR was performed using Applied Biosystems SYBR green PCR master mix in 384-well plate in ABI 7900HT Sequence Detection PCR System. The PCR was performed in a 20 μl reaction mixture containing 0.2 μl cDNA as template and 100 nM specific oligonucleotide primer pairs using program denaturation at 95° C. for 15 s; annealing and extension at 60° C. for 1 min for 40 cycles. Melting curve of each sample was measured to ensure the specificity of the products. Data were normalized to the internal control GAPDH and analyzed using Pfaffl ΔΔCt method.\nTo determine how 4c exerts the pro-differentiative effect at 10 nM on the lineage progression of oligodendrocyte progenitors when the global histone acetylation is unchanged, a possibility that the compound would primarily affect CBP binding to target genes was investigated. To test this hypothesis, a microarray analysis was performed of cultures either untreated or treated with 10 nM 4c for 1 or 4 days."}, "[2]": {"test_system": "rat primary oligodendrocyte progenitors", "assay": "Oligodendrocyte progenitor differentiation (immunocytochemistry NG2/O4/MBP, qRT-PCR MOG)", "format": "cell-based", "conditions": "10 nM", "method": "Early and differentiating progenitors were identified by positive immunoreactivity for the marker NG2 (dark) or O4 (light), respectively. FIG. 6B illustrates the number of NG2+, O4+ and NG2+/O4+ cells quantified in three independent experiments and the total number of oligodendrocyte lineage cells (mean±SD). FIG. 6C illustrates the results of rat primary cells cultured in medium containing 4c (10 nM) for 4 days and then labeled with O4 (light) and with the differentiation marker MBP (dark). FIG. 6D is a bar graph showing the number of MBP+ cells quantified in three independent experiments (mean±SD). FIG. 6E illustrates the qRT-PCR of the transcript levels of the late differentiation marker MOG in treated cells.\nCortex from rat p1 pups were dissected in L-15 medium and collected in NM10 medium (DMEM+10% FBS+2 mM glutamine+1 mM sodium pyruvate+100 U/ml penicillin+100 μg/ml streptomycin). The dissociated cells were plated into 75 cm^2 flasks (1.5 brain per flask) and cultured at 37° C. supplied with 5% CO2 for 7 days with the changing of fresh NM10 medium every other day. At day 8 the flasks were shaken for 16-18 h at 200 rpm and 37° C. and the medium containing the ‘shaken-off’ cells were collected. Oligodendrocyte progenitors (OPCs) were then isolated from the cell suspension by immunoselection using A2B5 antibodies followed by incubation with anti-immunoglobulin magnetic microbeads (50 nm in size and biodegradable) and separation using a high-gradient magnetic field generated by the permanent magnet in the MACS Separator unit (Miltenyi Biotec). The purified OPCs were plated in NM10 medium onto Lab Tek®II 8-well chamber slides (Nalge Nunc Inc.) at a density of 2×10^4 per well for immunocytochemistry, or poly-D-lysine-coated 6-well plates at a density of 2×10^5 per well for RNA isolation. After incubated for 8-16 hr, the medium was changed to ODM (DMEM, 2 mM L-glutamine, 1 mM sodium pyruvate, 10 ng/ml biotin, 100 μg/ml apotransferrin, 100 μM putrescine, 20 nM progesterone, 30 nM sodium selenite, 5 μg/ml insulin, 100 U/ml penicillin, 100 μg/ml streptomycin) supplemented with bFGF (20 ng/ml) and platelet derived growth factor (PDGF; 10 ng/ml), and cultured for additional one day as previously described (He, Y. et al., Neuron 55, 217-30 (2007)). Oligodendrocyte differentiation was induced by culturing the cells in the same medium devoid of mitogens (ODM) with or without compounds at indicated concentrations. […]\nImages were captured at 20× objective using LSM 710 Meta confocal laser scanning microscope (Carl Zeiss MicroImaging, Inc.). For the quantification of the cells at different stages, three fields of each well and three wells of each condition were analyzed. […]"}, "[3]": {"test_system": "p53-induced p21 luciferase activity in U2OS cells", "assay": "p53-dependent p21 luciferase activity in U2OS cells under doxorubicin treatment", "format": "cell-based, human", "method": "The luciferase activity was normalized to renilla luciferase as a control. The IC50 was calculated using PRISM software.\nThe activity of the pyrido-indole compounds (FIG. 10) were evaluated for their ability to inhibit p53 activation in human osteosarcoma (U2OS) cells. The p53 activation was induced by DNA damage upon treatment of doxorubicin, and effects of compound treatment were measured by p53-dependent p21 luciferase activity. U2OS Cells were transfected with p21 luciferase (1 μg) and renilla luciferase (100 ng) vectors in six-well plate format using Fugene 6 (Roche). 1.1 μg of vector was incubated with […] of Fugene 6 reagent for 30 min. After 3-4 hours of transfection, cell were treated with compounds overnight, and then exposed to 300 ng of doxorubicin for the next 24 hours. In these experiments, DMSO, transfected cells with empty vectors, and cells without doxorubicin were used as controls. The DMSO concentration was maintained at 0.01%. Transfected cells with doxorubicin treatment were used as a positive control. The luciferase activity was estimated by following the manufacturer's instruction (Promega) in a luminometer. Both active and passive lysis of cells yielded consistent results. The inhibitory activity (IC50) of a small molecule on p21 luciferase activity was obtained from the average of three biological replicates using PRISM software."}, "[4]": {"conditions": "10 nM, four days of treatment, microarray"}, "[5]": {"conditions": "10 nM, one day of treatment, microarray"}},
  "data": [
    {"smiles": "CC(=O)NCCCCn1c2c(c3ccccc31)C(=O)NCC2", "note": "[4c, 2,3,4,5-tetrahydro-5-(4′-acetamidobutyl)-1H-pyrido-[4,3-b]indol-1-one]", "values": [
      {"measurement": "number of genes down-regulated", "setting": "[1]; [4]", "value": 536, "unit": "genes"},
      {"measurement": "number of genes up-regulated", "setting": "[1]; [4]", "value": 57, "unit": "genes"},
      {"measurement": "number of genes decreased more than 1.2 fold", "setting": "[1]; [5]", "value": 832, "unit": "genes"},
      {"measurement": "number of genes increased more than 1.2 fold", "setting": "[1]; [5]", "value": 169, "unit": "genes"},
      {"measurement": "expression of Ctnnb1 and Lmnb1", "setting": "[1]; qRT-PCR, 4c-treated cells", "value": "reduced expression"},
      {"measurement": "percentage of MBP+ cells", "setting": "[2]; 4-day treatment", "value": "increased percentage of MBP+ cells"},
      {"measurement": "transcript levels of late-differentiation marker MOG", "setting": "[2]; 4-day treatment, qRT-PCR", "value": "increased transcript levels"},
      {"measurement": "NG2+ progenitors", "setting": "[2]; two-day treatment", "value": "concomitant decrease of NG2+ progenitors"},
      {"measurement": "percentage of O4+ cells", "setting": "[2]; two-day treatment", "value": "increased percentage of O4+ cells"},
      {"measurement": "inhibition of p53-induced p21 activation", "setting": "[3]", "value": "most potent effect"}
    ]}
  ]
}
